Test results taken from patent US20250340743A1, “Polyetheramine-Based Multifunctional Booster” (Troy Technology II, Inc., priority 2022, published 2025).
Read-outs that look alike come from different tables or passages of the source.

System: Pseudomonas aeruginosa (ATCC #10145)
Assay: MIC via microbroth dilution
Format: cell-based
Description: To examine the preservative boosting potential of these dispersions, minimum inhibitory concentration (MIC) testing was performed. MICs were determined via microbroth dilution using the following specific test parameters:
Necessary organism dilutions via OD600 were calculated based on OD600 of 1.0 being equivalent to 8×10^8 CFU/mL. Biocide dilutions were performed in 2-fold increments for each assay.

Row | SMILES | Fold Reduction of MIC over control without booster (Table 7, with 0.075% “1737-72”:AMP95 (1:1)) | Fold Reduction of MIC over control without booster (Table 7, with 0.15% “1737-72”:AMP95 (1:1)) | fold lower MIC values (biocide in combination with magnesium oxide version “1737-34”) | Fold Reduction of MIC over control without booster | fold lower MIC values
1 | O=c1[nH]sc2ccccc12 [BIT, 1,2-benzisothiazolin-3-one] | 2 fold | 2 fold | 2 fold | – | –
2 | [Na+].[O-][n+]1ccccc1[S-] [sodium pyrithione] | – | – | – | 64 fold | clearly antagonistic
